{"source": "paper PMC10281575", "about": "“PfCRT mutations conferring piperaquine resistance in falciparum malaria shape the kinetics of quinoline drug binding and transport” (PLOS Pathogens, 2023)", "molecular_target": "T1, PfCRT^Dd2_V141A (Plasmodium falciparum, UniProt Q8IBZ9, A220S/I356T/K76T/M74I/N326S/N75E/Q271E/R371I/V141A)", "T1 construct": "expressed in transfected cells; host or cells: Xenopus laevis oocytes", "T1 sequence (Q8IBZ9 1-424 M74I/N75E/K76T/V141A/A220S/Q271E/N326S/I356T/R371I)": "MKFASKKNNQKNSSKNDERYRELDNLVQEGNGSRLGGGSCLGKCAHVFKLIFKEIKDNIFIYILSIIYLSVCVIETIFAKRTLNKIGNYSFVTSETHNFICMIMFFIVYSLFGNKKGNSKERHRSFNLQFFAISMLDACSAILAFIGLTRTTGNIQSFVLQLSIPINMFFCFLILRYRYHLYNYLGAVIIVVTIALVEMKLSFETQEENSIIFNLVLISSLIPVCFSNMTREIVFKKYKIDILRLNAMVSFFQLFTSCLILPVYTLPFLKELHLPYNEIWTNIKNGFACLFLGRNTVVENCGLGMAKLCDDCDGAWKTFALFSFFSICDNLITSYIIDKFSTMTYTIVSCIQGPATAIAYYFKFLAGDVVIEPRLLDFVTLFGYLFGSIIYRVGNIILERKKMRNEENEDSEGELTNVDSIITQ", "assay": "PfCRT-mediated CQ transport in oocytes expressing PfCRT^Dd2_V141A", "assay_type": "cell-based", "conditions": "S6 Fig; per biological replicate", "source_text": "The docking results reflect the differences in the experimentally measured affinities of the two compounds for PfCRT^Dd2, with CQ having less favorable docking scores compared to PPQ (S1 Table). […] In this pose, CQ forms polar contacts via the two positively charged nitrogens: the nitrogen of the diethylamino tail makes a salt bridge with E75 on TM1 and the nitrogen of the 4-amminoquinoline ring makes a hydrogen bond with S257 on TM7. Hydrophobic contacts are established by the quinoline ring with I260, V141, and F145.\nDrug transport assays were performed as previously described. Briefly, measurements of radiolabeled drug uptake were made over 1 h, unless otherwise specified. […] Where specified, one or more unlabeled drugs were also present at the indicated concentrations. […] The radioactivity in the sample was measured using a liquid scintillation analyser Tri-Carb 4910 TR (PerkinElmer). Water-injected oocytes were analyzed in parallel as a negative control. The buffer from each condition was measured in duplicate in parallel to each experiment to transform counts per minute into pmol of drug. Drug uptake attributable to PfCRT was determined by subtracting the background uptake from water-injected oocytes from that of PfCRT-expressing oocytes. […]", "note": "“And” between values parts separate entries of the source, which are not always exact repeats. Equal entries are not always repeated.", "data": [{"compound": "CCN(CC)CCCC(C)Nc1ccnc2cc(Cl)ccc12", "note": "(stereo not shown) [CQ, chloroquine]", "values": [{"measurement": "PfCRTDd2_V141A-mediated CQ transport", "result": "1.080 pmol oocyte-1 h-1 and 0.460 pmol oocyte-1 h-1 and 1.360 pmol oocyte-1 h-1"}]}]}
